Measured values as given in publication PMC9490236, “Accurate de novo design of membrane-traversing macrocycles” (Cell, 2022).
Where a SMILES comes first, the peptide text is derived from it. [ ]: non-standard residue; d: D form. NMeF = CN[C@@H](Cc1ccccc1)C(=O)O; dNMeF = CN[C@H](Cc1ccccc1)C(=O)O; NMeL = CN[C@@H](CC(C)C)C(=O)O; dNMeL = CN[C@H](CC(C)C)C(=O)O; dNMeV = CN[C@@H](C(=O)O)C(C)C; NMeV = CN[C@H](C(=O)O)C(C)C; NMeA = CN[C@@H](C)C(=O)O; dNMeA = CN[C@H](C)C(=O)O

Experiments:
[1] = PAMPA
in vitro = details: PAMPA, PAMPA_Papp_Avg

SMILES | PAMPA_R1 [1] | PAMPA_R3 [1] | Papp (in vitro) [×10⁻⁶ cm/s]
CC(C)C[C@@H]1NC(=O)[C@H](C(C)C)NC(=O)[C@@H](CC(C)C)N(C)C(=O)[C@H](C)NC(=O)[C@@H](CC(C)C)N(C)C(=O)[C@@H]2CCCN2C(=O)[C@H]2CCCN2C(=O)[C@H](C)N(C)C(=O)[C@H]2CCCN2C(=O)[C@@H](CC(C)C)NC1=O [Design D10.35, LEU DLEU DPRO *ALA DPRO PRO *DLEU ALA *DLEU VAL] (cyclo([dNMeL]A[dNMeL]VL[dL][dP][NMeA][dP]P)) | 5.25E-07 | 2.07E-07 | 0.279
CC[C@H](C)[C@@H]1NC(=O)[C@@H](CC(C)C)N(C)C(=O)[C@H](CC(C)C)N(C)C(=O)[C@@H](C)N(C)C(=O)[C@@H](Cc2ccccc2)NC(=O)[C@H](C(C)C)NC(=O)[C@@H](C)NC(=O)[C@@H]2CCCN2C(=O)[C@H]2CCCN2C1=O [Design D9.10, VAL DPHE *DALA *LEU *DLEU ILE DPRO PRO DALA] (cyclo([dA]V[dF][dNMeA][NMeL][dNMeL]I[dP]P)) | 1.20E-06 | 6.09E-07 | 0.826
CC[C@@H](C)[C@H]1NC(=O)[C@H](Cc2ccccc2)NC(=O)[C@@H](C)NC(=O)[C@@H](CC(C)C)N(C)C(=O)[C@@H]2CCCN2C(=O)[C@H](C)NC(=O)[C@H]2CCCN2C(=O)[C@@H]2CCCN2C(=O)[C@@H](Cc2ccccc2)NC1=O [Design D9.41, PRO DPRO ALA PRO *DLEU DALA PHE DILE DPHE] (cyclo(AP[dNMeL][dA]F[dI][dF]P[dP])) | 3.56E-06 | 3.41E-06 | 3.48
CC[C@@H](C)[C@H]1NC(=O)[C@@H](CC(C)C)NC(=O)[C@@H]2CCCN2C(=O)[C@H]2CCCN2C(=O)[C@@H](C(C)C)NC(=O)[C@H](C)NC(=O)[C@@H]2CCCN2C(=O)[C@@H]([C@H](C)CC)NC(=O)[C@@H](C)N(C)C1=O [Design D9.23, DILE *DALA DILE PRO ALA DVAL DPRO PRO DLEU] (cyclo([dL][dI][dNMeA][dI]PA[dV][dP]P)) | 1.37E-07 | 1.50E-07 | 0.141
CC[C@@H](C)[C@H]1NC(=O)[C@H](CC(C)C)N(C)C(=O)[C@H]2CCCN2C(=O)[C@@H](Cc2ccccc2)N(C)C(=O)[C@@H](Cc2ccccc2)N(C)C(=O)[C@H](CC(C)C)N(C)C(=O)[C@@H](C(C)C)NC(=O)[C@@H]2CCCN2C(=O)[C@H](C)NC1=O [Design D9.9, PRO DVAL *LEU *DPHE *DPHE DPRO *LEU DILE ALA] (cyclo(AP[dV][NMeL][dNMeF][dNMeF][dP][NMeL][dI])) | 7.88E-07 | 2.31E-07 | 0.575
CC(C)C[C@@H]1C(=O)N[C@H](C)C(=O)N[C@@H](C(C)C)C(=O)N2CCC[C@@H]2C(=O)N[C@H](C(C)C)C(=O)N2CCC[C@@H]2C(=O)N2CCC[C@H]2C(=O)N[C@H](C)C(=O)N(C)[C@H](CC(C)C)C(=O)N1C [Design D9.29, DVAL DPRO PRO DALA *DLEU *DLEU DALA VAL DPRO] (cyclo([dA][dNMeL][dNMeL][dA]V[dP][dV][dP]P)) | 1.96E-06 | 1.19E-06 | 1.51
CC[C@H](C)[C@@H]1NC(=O)[C@@H](C)NC(=O)[C@@H]2CCCN2C(=O)[C@H]2CCCN2C(=O)[C@@H]2CCCN2C(=O)[C@@H](C)NC(=O)[C@@H](Cc2ccccc2)NC(=O)[C@@H](CC(C)C)N(C)C(=O)[C@@H](CC(C)C)N(C)C1=O [Design D9.15, PRO DPRO PRO DALA ILE *DLEU *DLEU DPHE DALA] (cyclo([dA]I[dNMeL][dNMeL][dF][dA]P[dP]P)) | 9.95E-07 | 6.20E-07 | 0.85
CC(C)C[C@@H]1C(=O)N(C)[C@@H](CC(C)C)C(=O)N2CCC[C@@H]2C(=O)N[C@H](CC(C)C)C(=O)N[C@H](C)C(=O)N2CCC[C@@H]2C(=O)N2CCC[C@H]2C(=O)N[C@@H](C)C(=O)N[C@H](Cc2ccccc2)C(=O)N[C@H](CC(C)C)C(=O)N[C@@H](C(C)C)C(=O)N1C (single isomer, unassigned) [Design D11.9.p1, VAL *DLEU *LEU DPRO DLEU DALA DPRO PRO ALA DPHE DLEU] | 1.04E-06 | 2.42E-07 | 0.641
CC[C@@H](C)[C@H]1NC(=O)[C@H]2CCCN2C(=O)[C@H]([C@@H](C)CC)NC(=O)[C@H](CC(C)C)N(C)C(=O)[C@H]2CCCN2C(=O)[C@@H]2CCCN2C(=O)[C@H](Cc2ccccc2)N(C)C(=O)[C@H](Cc2ccccc2)NC(=O)[C@H]([C@@H](C)CC)NC1=O [Design D9.13, DPRO DILE ILE PHE *PHE PRO DPRO *LEU ILE] (cyclo(F[NMeF]P[dP][NMeL]I[dP][dI]I)) | 3.63E-06 | 3.09E-06 | 3.37
CC(C)C[C@@H]1NC(=O)[C@H](Cc2ccccc2)N(C)C(=O)[C@H]2CCCN2C(=O)[C@@H](CC(C)C)NC(=O)[C@@H](CC(C)C)NC(=O)[C@H](C)NC(=O)[C@H]2CCCN2C(=O)[C@@H]2CCCN2C(=O)[C@@H](C(C)C)NC1=O [Design D9.32, DPRO ALA DLEU DLEU DPRO *PHE LEU DVAL PRO] (cyclo(A[dL][dL][dP][NMeF]L[dV]P[dP])) | 2.62E-07 | 2.67E-07 | 0.24
CC(C)C[C@@H]1C(=O)N[C@H](C(C)C)C(=O)N(C)[C@@H](C(C)C)C(=O)N2CCC[C@H]2C(=O)N2CCC[C@@H]2C(=O)N[C@@H](C)C(=O)N(C)[C@@H](Cc2ccccc2)C(=O)N(C)[C@H](CC(C)C)C(=O)N[C@H](C)C(=O)N1C [Design D9.17, DPRO ALA *PHE *DLEU DALA *DLEU DVAL *VAL PRO] (cyclo(A[NMeF][dNMeL][dA][dNMeL][dV][NMeV]P[dP])) | 2.83E-06 | 4.13E-07 | 1.74
CC[C@@H](C)[C@H]1NC(=O)[C@H](CC(C)C)N(C)C(=O)[C@H]2CCCN2C(=O)[C@H](CC(C)C)NC(=O)[C@H](Cc2ccccc2)N(C)C(=O)CN(C)C(=O)[C@@H](C(C)C)NC(=O)[C@H](C)NC(=O)[C@H]2CCCN2C(=O)[C@@H]2CCCN2C1=O (single isomer, unassigned) [Design D10.58.p1, *GLY *PHE LEU DPRO *LEU DILE PRO DPRO ALA DVAL] | 3.35E-07 | 4.44E-07 | 0.376
CC(C)C[C@H]1C(=O)N2CCC[C@@H]2C(=O)N[C@@H](Cc2ccccc2)C(=O)N2CCC[C@H]2C(=O)N(C)[C@H](C(C)C)C(=O)N[C@H](Cc2ccccc2)C(=O)N1C [Design D6.10, *DVAL DPHE *LEU DPRO PHE PRO] (cyclo(FP[dNMeV][dF][NMeL][dP])) | 1.23e-05 cm/s | 1.13e-05 cm/s | 11.6
CC(C)C[C@@H]1C(=O)N(C)[C@H](CC(C)C)C(=O)N2CCC[C@H]2C(=O)N[C@H](CC(C)C)C(=O)N2CCC[C@@H]2C(=O)N2CCC[C@@H]2C(=O)N(C)[C@H](CC(C)C)C(=O)N[C@H](Cc2ccccc2)C(=O)N[C@@H](C)C(=O)N1C [Design D9.18, ALA *DLEU *DLEU PRO DLEU DPRO DPRO *DLEU DPHE] (cyclo(A[dNMeL][dNMeL]P[dL][dP][dP][dNMeL][dF])) | 1.88E-06 | 1.97E-06 | 1.76
CC(C)C[C@H]1NC(=O)[C@@H]2CCCN2C(=O)[C@@H](C(C)C)NC(=O)[C@@H](C)N(C)C(=O)[C@@H](C(C)C)NC(=O)[C@@H]2CCCN2C(=O)[C@@H](Cc2ccccc2)NC(=O)[C@H](CC(C)C)N(C)C(=O)[C@@H](C(C)C)NC1=O [Design D9.5, PRO DVAL *DALA DVAL PRO DLEU DVAL *LEU DPHE] (cyclo([NMeL][dF]P[dV][dNMeA][dV]P[dL][dV])) | 3.32E-06 | 4.42E-06 | 3.51
CC[C@@H](C)[C@H]1NC(=O)[C@H]2CCCN2C(=O)[C@@H]2CCCN2C(=O)[C@@H](CC(C)C)NC(=O)[C@H](C)NC(=O)[C@@H](CC(C)C)N(C)C(=O)[C@@H](C)N(C)C(=O)[C@@H]2CCCN2C(=O)[C@@H]([C@H](C)CC)NC(=O)[C@@H](CC(C)C)N(C)C1=O [Design D10.39, PRO *DALA *DLEU ALA DLEU PRO DPRO DILE *DLEU DILE] (cyclo(A[dL]P[dP][dI][dNMeL][dI]P[dNMeA][dNMeL])) | 1.69E-06 | 1.47E-06 | 1.48
CC(C)C[C@H]1NC(=O)[C@@H]2CCCN2C(=O)[C@@H]2CCCN2C(=O)[C@@H](C)NC(=O)[C@@H](Cc2ccccc2)NC(=O)[C@H]2CCCN2C1=O [Design D6.3, DPRO DPHE DALA PRO PRO DLEU] (cyclo(PP[dL][dP][dF][dA])) | 5.23e-06 cm/s | 7.03e-07 cm/s | 1.99
CC(C)C[C@@H]1C(=O)N(C)[C@H](C)C(=O)N(C)[C@@H](C(C)C)C(=O)N2CCC[C@@H]2C(=O)N[C@H](C)C(=O)N[C@@H](Cc2ccccc2)C(=O)N2CCC[C@@H]2C(=O)N2CCC[C@H]2C(=O)N[C@H](C(C)C)C(=O)N[C@@H](C(C)C)C(=O)N1C [Design D10.29, PHE DPRO PRO DVAL VAL *DLEU *DALA *VAL DPRO DALA] (cyclo([dV]V[dNMeL][dNMeA][NMeV][dP][dA]F[dP]P)) | 3.87E-07 | 4.67E-07 | 0.441
CC(C)C[C@H]1NC(=O)[C@H]2CCCN2C(=O)[C@@H]2CCCN2C(=O)[C@@H](Cc2ccccc2)NC(=O)[C@@H](C(C)C)NC(=O)[C@H](CC(C)C)N(C)C(=O)[C@@H](Cc2ccccc2)NC1=O (single isomer, unassigned) [Design D7.7.p1, PRO DPRO DLEU DPHE *LEU DVAL DPHE] | 8.16e-06 cm/s | 9.31e-06 cm/s | 8.43
CC(C)C[C@@H]1C(=O)N(C)[C@H](CC(C)C)C(=O)N[C@H](CC(C)C)C(=O)N[C@@H](C(C)C)C(=O)N2CCC[C@@H]2C(=O)N2CCC[C@H]2C(=O)N[C@H](CC(C)C)C(=O)N[C@@H](C(C)C)C(=O)N1C [Design D8.23, DLEU VAL *DLEU *DLEU DLEU VAL DPRO PRO] (cyclo([dL]V[dNMeL][dNMeL][dL]V[dP]P)) | 1.18E-06 | 1.40E-06 | 1.28
